Laboratory results from ChEMBL document CHEMBL1201862, “PubChem BioAssay data set” (2004).
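Cells were grown in 96-well plates and exposed to each compound for 48 hours at five concentrations; endpoints were interpolated linearly between bracketing concentrations, or set to the highest concentration if not reached. At the GI50, growth is halved.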 Active and inactive are the calls of the source. Cut-off read from the data, not from the text of the source: active = GI50 up to about 1.1 µM and inactive = higher.

Experiments:
Experiment in all cases: inhibition of tumour cell growth, NCI panel, 48 h
[1] = system: KM12
[2] = system: HL-60
[3] = system: SK-MEL-2
[4] = system: HCT-15
[5] = system: SK-OV-3
[6] = system: HT-29
[7] = system: DLD-1
[8] = system: SR
[9] = system: Malme-3M
[10] = system: COLO 205
[11] = system: SN12C
[12] = system: 786-0
[13] = system: NCI-H23
[14] = system: HOP-62
[15] = system: SF-539
[16] = system: SW-620
[17] = system: NCI-H522
[18] = system: OVCAR-5
[19] = system: MDA-N
[20] = system: PC-3

Row | SMILES | GI50 [1] | GI50 [2] | GI50 [3] | GI50 [4] [µM] | GI50 [5] | GI50 [6] | GI50 [7] | GI50 [8] | GI50 [9] | GI50 [10] | GI50 [11] | GI50 [12] | GI50 [13] | GI50 [14] | GI50 [15] | GI50 [16] | GI50 [17] | GI50 [18] | GI50 [19] | GI50 [20]
1 | C[C@@H]1C[C@@H]([C@H](O)CC2CC(=O)NC(=O)C2)C(=O)[C@@H](C)C1 [CYCLOHEXIMIDE] | 0.0202 µM (active) | 0.0485 µM (active) | 0.106 µM (active) | 0.0433 | 0.127 µM (active) | 0.0718 µM (active) | 0.0405 µM (active) | 0.0416 µM (active) | 0.0889 µM (active) | 0.0352 µM (active) | 0.0199 µM (active) | 0.0372 µM (active) | 0.0516 µM (active) | 0.0596 µM (active) | 0.0431 µM (active) | 0.0462 µM (active) | 0.0395 µM (active) | 0.141 µM (active) | – | –
2 | Nc1ccc(S(=O)(=O)Nc2cnc3ccccc3n2)cc1 [SULFAQUINOXALINE] | > 100 µM (inactive) | > 100 µM (inactive) | > 52.1 µM (inactive) | > 100 | > 100 µM (inactive) | > 100 µM (inactive) | > 100 µM (inactive) | > 100 µM (inactive) | > 96.6 µM (inactive) | > 100 µM (inactive) | > 100 µM (inactive) | > 100 µM (inactive) | > 100 µM (inactive) | > 100 µM (inactive) | > 100 µM (inactive) | > 100 µM (inactive) | > 100 µM (inactive) | > 100 µM (inactive) | > 100 µM (inactive) | > 100 µM (inactive)
